Article PMC7765920 (Molecules, 2020)
Read-outs that look alike come from different tables or passages of the source. Marks after values point to notes of the source that are not given here.

Legend:
Format in all cases: biochemical
[1] = target: T1, GST-DYRK1A-ΔC (amino acids 1–499 of rat DYRK1A) (Rattus norvegicus, UniProt Q63470); assay: Kinase-GLO luminescent assay of DYRK1A catalytic activity; settings: for remaining activity at 1 µM: read-out: DYRK1A residual activity
T1 construct: containing amino acids 1–499 of rat DYRK1A; made in house; host or cells: E. coli
Description: (§1) Optimization of the compounds, however, aimed predominantly at elimination of MAO-A-inhibitory activity while keeping DYRK1A inhibitory potency, and not at achieving high selectivity for DYRK1A over CLK1. The tests were performed as described by us before in detail. Due to the very large number of test compounds (more than 60), a first screening was performed at a single inhibitor concentration of 1 µM.
(§2) Inhibitors were dissolved in DMSO at a concentration of 10 mM and stored at […]. Working solutions were prepared to achieve a final concentration of 1 µM in the enzyme assays.
(§3) Recombinant kinases were purified from E. coli as GST (glutathione S-transferase) fusion constructs by affinity adsorption to glutathione-Sepharose. […] Catalytic activity of the kinases was measured with the help of the Kinase-GLO^TM Luminescent Assay from Promega. Assays were performed in a total volume of 10 μL in kinase buffer (25 mM Hepes pH 7.4, 0.5 mM DTT, 5 mM MgCl2, 5 μM ATP) with appropriate peptide substrates (20 μM DYRKtide for the DYRKs and 100 μM DYRKtide for HIPK2, […]; or 100 μM RS peptide for CLK1, […]). Kinases amounts in the assays were adjusted so that approximately 90% of the ATP in the assay was consumed in control samples without inhibitor. Kinase reactions were incubated at room temperature for 30 min before 10 μL Kinase-GLO reagent was added for luminometric measurement of the ATP that was not consumed by the kinases. After incubation at room temperature for an additional 10 min, luminescence was recorded for 1 s (Berthold Orion Microplate Luminometer). ATP consumption in the control samples without inhibitor was set as 100% catalytic activity, and the inhibitory effects of the test compounds were calculated relative to this value.

human recombinant MAO-A = target: T2, human recombinant MAO-A (Homo sapiens, UniProt P21397); assay: MAO-GLO luminescence assay of MAO-A catalytic activity; settings: for remaining activity at 1 µM: read-out: MAO-A residual activity
T2 sequence (P21397 1-527): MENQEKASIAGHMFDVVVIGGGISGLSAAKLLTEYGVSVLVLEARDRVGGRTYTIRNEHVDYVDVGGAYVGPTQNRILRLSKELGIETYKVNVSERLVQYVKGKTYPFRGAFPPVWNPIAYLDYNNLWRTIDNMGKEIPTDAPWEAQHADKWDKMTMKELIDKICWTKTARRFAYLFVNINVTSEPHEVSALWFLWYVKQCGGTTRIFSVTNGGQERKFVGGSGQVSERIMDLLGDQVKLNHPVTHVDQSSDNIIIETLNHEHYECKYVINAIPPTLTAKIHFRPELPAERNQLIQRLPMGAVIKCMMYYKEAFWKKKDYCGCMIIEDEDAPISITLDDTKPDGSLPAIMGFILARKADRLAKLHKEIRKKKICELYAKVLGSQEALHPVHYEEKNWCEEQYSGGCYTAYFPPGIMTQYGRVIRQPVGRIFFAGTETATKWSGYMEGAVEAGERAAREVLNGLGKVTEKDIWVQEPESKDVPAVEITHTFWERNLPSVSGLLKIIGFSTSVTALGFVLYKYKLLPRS
Description: as §1, §2
Catalytic activity of monoamine oxidase A (MAO-A) was measured by using the luminescence-based MAO-GLO^TM Assay from Promega. Recombinant MAO-A converts a luminogenic MAO substrate into luciferin, which is, in turn, luminometrically detected in a luciferase reaction. The amount of light produced is directly proportional to MAO activity. […] Inhibitory effects of the tested compounds were calculated relative to the activity of control reactions that were run in the absence of inhibitors.

[2] = target: T3, GST-CLK1cat (amino acids 141–484 of human CLK1) (Homo sapiens, UniProt P49759); assay: Kinase-GLO luminescent assay of CLK1 catalytic activity; settings: 1 µM inhibitor concentration, residual activity relative to control without inhibitor; for remaining activity at 1 µM: read-out: CLK1 residual activity
T3 construct: containing amino acids 141–484 of human CLK1; made in house; host or cells: E. coli
T3 sequence (P49759 141-484): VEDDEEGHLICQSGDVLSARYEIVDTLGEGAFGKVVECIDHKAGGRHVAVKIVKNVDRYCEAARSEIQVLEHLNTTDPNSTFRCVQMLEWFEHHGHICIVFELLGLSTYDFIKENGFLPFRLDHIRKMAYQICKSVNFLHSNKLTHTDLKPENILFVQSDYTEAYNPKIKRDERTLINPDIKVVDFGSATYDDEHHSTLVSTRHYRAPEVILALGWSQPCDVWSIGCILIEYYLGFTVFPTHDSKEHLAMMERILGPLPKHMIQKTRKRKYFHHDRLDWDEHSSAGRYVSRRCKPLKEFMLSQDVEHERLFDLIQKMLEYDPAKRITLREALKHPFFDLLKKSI
Description: as §1, §2, §3

[3] = 1 µM inhibitor concentration, residual activity relative to control without inhibitor

Q: With `CCCCn1c2c(C)nccc2c2ccc(OC)c(Br)c21` [AnnH9, 8-Bromo-9-butyl-7-methoxy-1-methyl-9H-pyrido[3,4-b]indole] as the compound, how does the remaining activity at 1 µM [1, 3] read?
A: 96%

Q: And the remaining activity at 1 µM (human recombinant MAO-A; [3])?
A: 8%

Q: `COc1ccc2c3c([nH]c2c1)C(=O)NCC3` [AnnH19, 7-methoxy-2,3,4,9-tetrahydro-1H-pyrido[3,4-b]indol-1-one] was tested. Which remaining activity at 1 µM [1, 3] did it give?
A: 122%

Q: And the remaining activity at 1 µM [2]?
A: > 90%

Q: Which DYRK1A residual activity [1, 3] does the source give for harmol [reference compound] here?
A: 18%

Q: And the CLK1 residual activity [2]?
A: 6 *** %

Q: And the MAO-A residual activity (human recombinant MAO-A; [3])?
A: 120%

Q: For `COc1ccc2c3ccnc(C)c3n(CCN3CCCC3)c2c1` [AnnH55, 7-Methoxy-1-methyl-9-[2-(pyrrolidin-1-yl)ethyl]-9H-pyrido[3,4-b]indole], which remaining activity at 1 µM [1, 3] is on record?
A: 48%

Q: What about the remaining activity at 1 µM [2] of the same compound?
A: 85%

Q: And the remaining activity at 1 µM (human recombinant MAO-A; [3])?
A: 67%

Q: `COc1ccc2c3ccnc(C)c3n(CCN(C)C)c2c1` [AnnH16, [2-(7-Methoxy-1-methyl-9H-pyrido[3,4-b]indol-9-yl)-ethyl]-dimethylamine] was tested. Which remaining activity at 1 µM [1, 3] did it give?
A: 107%

Q: What about the remaining activity at 1 µM (human recombinant MAO-A; [3]) of the same compound?
A: 103%

Q: What does the source list for `COc1ccc2c3ccnc(C)c3n(CCN3CCCCC3)c2c1` [AnnH57, 7-Methoxy-1-methyl-9-[2-(piperidin-1-yl)ethyl]-9H-pyrido[3,4-b]indole]?
A: remaining activity at 1 µM [1, 3]: 33%; remaining activity at 1 µM [2]: 78%; remaining activity at 1 µM (human recombinant MAO-A; [3]): 97%

Q: For `COc1ccc2c([nH]c3c(C)nccc32)c1Br` [AnnH5_3, 8-bromo-7-methoxy-1-methyl-9H-pyrido[3,4-b]indole], which remaining activity at 1 µM [1, 3] is on record?
A: 95%

Q: And the remaining activity at 1 µM (human recombinant MAO-A; [3])?
A: 8%

Q: Which remaining activity at 1 µM [1, 3] does the source give for `COc1cc2[nH]c3c(C)nccc3c2cc1Br` [AnnH5_2] here?
A: 88%

Q: And the remaining activity at 1 µM (human recombinant MAO-A; [3])?
A: 7%

Q: Which remaining activity at 1 µM [1, 3] does the source give for `COc1cc2[nH]c3c(C)nccc3c2cc1Cl` [AnnH6_3_2, 6-chloro-7-methoxy-1-methyl-9H-pyrido[3,4-b]indole] here?
A: 92%

Q: And the remaining activity at 1 µM (human recombinant MAO-A; [3])?
A: 9%

Q: With `COc1c(Cl)cc2c([nH]c3c(C)nccc32)c1Cl` [AnnH6_3_1] as the compound, how does the remaining activity at 1 µM [1, 3] read?
A: 99%

Q: And the remaining activity at 1 µM (human recombinant MAO-A; [3])?
A: 64%

Q: For `COc1ccc2c3ccnc(C)c3n(C)c2c1` [AnnH1], which remaining activity at 1 µM [2] is on record?
A: 6%

Q: What about the remaining activity at 1 µM (human recombinant MAO-A; [3]) of the same compound?
A: 2%

Q: How did the remaining activity at 1 µM [2] turn out when `COc1ccc2c3ccnc(C)c3n(CC(=O)O)c2c1` [AnnH25, 2-(7-Methoxy-1-methyl-9H-pyrido[3,4-b]indol-9-yl)acetic acid] was run?
A: 34%

Q: What about the remaining activity at 1 µM (human recombinant MAO-A; [3]) of the same compound?
A: 6%

Q: How did the remaining activity at 1 µM [1, 3] turn out when `COc1c(Br)cc2c([nH]c3c(C)nc(Br)cc32)c1Br` [AnnH5_4, 3,6,8-tribromoharmine] was run?
A: 126%

Q: With `COc1ccc2c3ccnc(C)c3n(Cc3ccccc3)c2c1` [AnnH4, 9-Benzyl-7-methoxy-1-methyl-9H-pyrido[3,4-b]indole] as the compound, how does the remaining activity at 1 µM [1, 3] read?
A: 88%

Q: And the remaining activity at 1 µM (human recombinant MAO-A; [3])?
A: 80%

Q: Which remaining activity at 1 µM [1, 3] does the source give for `COc1ccc2c([nH]c3c(C)nccc32)c1Cl` [AnnH6_1, 8-chloro-7-methoxy-1-methyl-9H-pyrido[3,4-b]indole] here?
A: 97%

Q: What about the remaining activity at 1 µM (human recombinant MAO-A; [3]) of the same compound?
A: 16%

Q: `COc1ccc2c3ccnc(C)c3n(CC(N)=O)c2c1` [AnnH28, 2-(7-Methoxy-1-methyl-9H-pyrido[3,4-b]indol-9-yl)-N-acetamide] was tested. Which remaining activity at 1 µM [2] did it give?
A: 89%

Q: What about the remaining activity at 1 µM (human recombinant MAO-A; [3]) of the same compound?
A: 131%

Q: What does the source list for `CCCCn1c2cc(OC)ccc2c2ccnc(C)c21` [AnnH3, 9-Butyl-7-methoxy-1-methyl-9H-pyrido[3,4-b]indole]?
A: remaining activity at 1 µM [2]: 24%; remaining activity at 1 µM (human recombinant MAO-A; [3]): 10%

Q: Which results are given for `COc1ccc2c(c1)[nH]c1c(Cl)nccc12` [AnnH24, 1-chloro-7-methoxy-9H-pyrido[3,4-b]indole]?
A: remaining activity at 1 µM [2]: 17%; remaining activity at 1 µM (human recombinant MAO-A): 103%

Q: With `COc1ccc2c(c1)[nH]c1c(=O)[nH]ccc12` [AnnH20, 7-Methoxy-2,9-dihydro-1H-pyrido[3,4-b]indol-1-one] as the compound, how does the remaining activity at 1 µM (human recombinant MAO-A) read?
A: 127%

Q: How did the remaining activity at 1 µM [1] turn out when `Cc1nccc2c1[nH]c1ccccc12` [harmane, reference compound] was run?
A: 97%

Q: What about the remaining activity at 1 µM (human recombinant MAO-A) of the same compound?
A: 18%

Q: For `COc1c(Br)cc2c([nH]c3c(C)nccc32)c1Br` [AnnH5_1], which remaining activity at 1 µM [1, 3] is on record?
A: 101%

Q: What about the remaining activity at 1 µM (human recombinant MAO-A; [3]) of the same compound?
A: 70%
